Literature values in patent US6416998B1, “Plasmid encoding a modified steroid hormone” (Baylor College of Medicine, priority 1992, dated 2002).

Legend:
Conditions in all cases: cited from earlier work
[1] = biological target: T1, chicken progesterone receptor (Gallus gallus, UniProt P07812)
T1 sequence (P07812 1-786): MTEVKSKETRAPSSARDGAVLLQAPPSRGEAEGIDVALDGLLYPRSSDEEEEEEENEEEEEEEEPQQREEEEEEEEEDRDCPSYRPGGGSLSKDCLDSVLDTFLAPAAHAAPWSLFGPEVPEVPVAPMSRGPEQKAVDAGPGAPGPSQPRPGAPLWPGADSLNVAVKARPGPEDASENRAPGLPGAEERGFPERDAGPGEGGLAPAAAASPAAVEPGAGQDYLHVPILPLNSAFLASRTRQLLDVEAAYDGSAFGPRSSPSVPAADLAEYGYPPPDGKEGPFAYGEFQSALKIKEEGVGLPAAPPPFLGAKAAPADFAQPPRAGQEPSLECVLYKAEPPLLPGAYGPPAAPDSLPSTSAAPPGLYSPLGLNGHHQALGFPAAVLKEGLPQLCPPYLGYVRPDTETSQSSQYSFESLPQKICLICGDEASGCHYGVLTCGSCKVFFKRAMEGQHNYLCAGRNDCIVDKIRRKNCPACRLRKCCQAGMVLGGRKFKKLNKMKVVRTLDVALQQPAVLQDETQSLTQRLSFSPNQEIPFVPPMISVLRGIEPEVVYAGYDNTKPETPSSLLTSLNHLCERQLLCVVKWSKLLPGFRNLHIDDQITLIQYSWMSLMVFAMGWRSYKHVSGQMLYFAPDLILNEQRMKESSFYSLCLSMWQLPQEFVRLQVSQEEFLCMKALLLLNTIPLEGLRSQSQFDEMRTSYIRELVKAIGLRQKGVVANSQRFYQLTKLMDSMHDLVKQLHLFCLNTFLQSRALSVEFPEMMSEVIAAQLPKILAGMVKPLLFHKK

[2] = biological target: T2, rat progesterone receptor (Rattus norvegicus, UniProt Q63449)
T2 sequence (Q63449 1-923): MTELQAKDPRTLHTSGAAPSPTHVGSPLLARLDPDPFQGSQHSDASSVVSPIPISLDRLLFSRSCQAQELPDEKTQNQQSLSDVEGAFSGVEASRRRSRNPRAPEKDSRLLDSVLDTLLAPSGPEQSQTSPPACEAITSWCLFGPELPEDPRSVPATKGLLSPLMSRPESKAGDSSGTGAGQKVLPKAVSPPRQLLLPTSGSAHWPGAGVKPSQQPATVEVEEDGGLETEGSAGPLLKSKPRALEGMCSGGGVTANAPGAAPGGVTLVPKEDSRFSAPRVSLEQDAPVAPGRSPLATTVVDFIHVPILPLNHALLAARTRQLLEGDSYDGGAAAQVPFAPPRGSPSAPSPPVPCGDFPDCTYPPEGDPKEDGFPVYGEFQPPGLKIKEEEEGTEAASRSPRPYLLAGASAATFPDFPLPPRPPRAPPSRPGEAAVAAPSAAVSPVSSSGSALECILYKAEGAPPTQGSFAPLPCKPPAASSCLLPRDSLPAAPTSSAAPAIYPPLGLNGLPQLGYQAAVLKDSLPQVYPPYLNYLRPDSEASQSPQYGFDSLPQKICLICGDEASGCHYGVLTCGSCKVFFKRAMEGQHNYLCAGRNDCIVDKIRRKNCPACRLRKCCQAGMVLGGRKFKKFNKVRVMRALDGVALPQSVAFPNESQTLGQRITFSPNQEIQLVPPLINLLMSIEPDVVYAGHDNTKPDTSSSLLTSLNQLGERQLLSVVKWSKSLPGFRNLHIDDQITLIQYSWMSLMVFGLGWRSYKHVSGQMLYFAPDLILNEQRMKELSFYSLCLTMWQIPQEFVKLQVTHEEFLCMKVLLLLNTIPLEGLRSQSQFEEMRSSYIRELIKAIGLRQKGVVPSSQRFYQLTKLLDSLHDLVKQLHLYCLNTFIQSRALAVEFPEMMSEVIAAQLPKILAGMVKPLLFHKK

[3] = biological target: T3, human progesterone receptor (Homo sapiens, UniProt P06401)
T3 sequence (P06401 1-933): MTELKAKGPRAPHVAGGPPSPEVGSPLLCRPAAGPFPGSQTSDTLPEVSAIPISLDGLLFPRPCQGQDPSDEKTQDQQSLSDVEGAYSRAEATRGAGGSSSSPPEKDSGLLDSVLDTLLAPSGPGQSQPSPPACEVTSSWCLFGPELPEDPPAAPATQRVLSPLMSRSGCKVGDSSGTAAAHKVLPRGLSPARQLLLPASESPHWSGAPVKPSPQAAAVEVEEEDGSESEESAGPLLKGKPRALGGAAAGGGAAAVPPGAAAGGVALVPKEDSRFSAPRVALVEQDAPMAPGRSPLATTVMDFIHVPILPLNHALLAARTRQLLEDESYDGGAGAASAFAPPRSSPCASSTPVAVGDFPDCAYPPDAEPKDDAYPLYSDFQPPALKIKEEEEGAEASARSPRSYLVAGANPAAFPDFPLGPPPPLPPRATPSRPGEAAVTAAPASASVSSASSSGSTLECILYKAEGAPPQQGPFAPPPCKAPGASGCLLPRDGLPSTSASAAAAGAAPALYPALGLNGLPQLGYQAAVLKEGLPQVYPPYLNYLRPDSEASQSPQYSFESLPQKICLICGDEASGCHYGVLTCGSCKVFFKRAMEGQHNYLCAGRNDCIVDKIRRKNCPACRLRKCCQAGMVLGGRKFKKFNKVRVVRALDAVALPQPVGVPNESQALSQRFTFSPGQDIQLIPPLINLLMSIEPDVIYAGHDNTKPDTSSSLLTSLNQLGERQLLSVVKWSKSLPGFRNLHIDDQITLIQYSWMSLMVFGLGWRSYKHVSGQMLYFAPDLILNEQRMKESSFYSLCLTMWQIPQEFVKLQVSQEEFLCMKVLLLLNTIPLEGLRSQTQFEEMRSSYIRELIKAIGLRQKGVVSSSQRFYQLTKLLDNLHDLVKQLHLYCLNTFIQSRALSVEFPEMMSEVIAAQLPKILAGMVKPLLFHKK

Vitamin D receptor = biological target: T4, Vitamin D receptor (Homo sapiens, UniProt P11473)
T4 sequence (P11473 1-427): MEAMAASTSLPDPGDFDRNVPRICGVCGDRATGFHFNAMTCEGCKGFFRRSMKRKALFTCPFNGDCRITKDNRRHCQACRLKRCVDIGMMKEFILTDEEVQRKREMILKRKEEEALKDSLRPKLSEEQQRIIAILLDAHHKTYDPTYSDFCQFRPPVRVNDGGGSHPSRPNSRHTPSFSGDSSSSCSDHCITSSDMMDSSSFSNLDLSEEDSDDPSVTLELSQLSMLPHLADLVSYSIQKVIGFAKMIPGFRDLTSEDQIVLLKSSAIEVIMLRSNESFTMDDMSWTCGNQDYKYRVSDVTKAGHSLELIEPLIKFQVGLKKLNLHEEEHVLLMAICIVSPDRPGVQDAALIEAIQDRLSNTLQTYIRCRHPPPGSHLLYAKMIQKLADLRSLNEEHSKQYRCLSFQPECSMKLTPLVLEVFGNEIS

**Q.** For `CC(=O)[C@H]1CC[C@H]2[C@@H]3CC[C@H]4CC(=O)CC[C@]4(C)[C@H]3CC[C@]12C` [5α-pregnane-3,20-dione], which binding [1] is on record?
**A.** The binding was “binds extremely well”.

**Q.** And the binding [2]?
**A.** The binding was “binds extremely well”.

**Q.** What about the binding [3] of the same compound?
**A.** The binding was “does not bind or binds very poorly”.

**Q.** For `C=C1CC[C@H](O)C/C1=C/C=C1\CCC[C@]2(C)[C@@H]([C@H](C)CCC(O)C(C)(C)O)CC[C@@H]12` (stereo partly shown) [24,25-dihydroxy-Vitamin D], which receptor activation (Vitamin D receptor) is on record?
**A.** Its receptor activation is “does not”.
